Test systems include DU-145; SN12C; NCI-H522; 786-0; KM12; UACC-62; HCT-116; SF-295; TK-10; UO-31; A549; ACHN; MDA-MB-435; NCI/ADR-RES; IGROV-1; Hs-578T; K562; RPMI-8226; HT-29; LOX IMVI.
Common to all, as to experiment: NCI tumour cell line growth inhibition, 48 h

Each structure is given as a SMILES string.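 Where inhibition never reached the appropriate level, the endpoint shown equals the highest concentration tested. Otherwise, values were interpolated linearly from a five-concentration, 48-hour dose response in 96-well plates. GI50 marks 50% less growth.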 The source made the active and inactive calls. Cut-off read from the data, not from the text of the source: active = GI50 up to about 1.1 µM and inactive = higher.

As for `O=C1/C(=C/c2ccc([N+](=O)[O-])cc2)Oc2cc(O)ccc21`, the GI50 in the assay on DU-145 is 33.7 µM (inactive); in the assay with SN12C, 26.6 µM (inactive); in the assay on NCI-H522, 24.8 µM (inactive); with 786-0 it was 22.2 µM (inactive); in the assay with KM12, 36.5 µM (inactive); with UACC-62, 33 µM (inactive). For the same molecule, the GI50 is 26.2 µM (inactive) with HCT-116; 37.8 µM (inactive) in the assay on SF-295; 27.4 µM (inactive) with TK-10; 17.7 µM (inactive) in the assay on UO-31; 28.8 µM (inactive) in the assay with A549; 25.4 µM (inactive) with ACHN. Also, the GI50 in the assay on MDA-MB-435 was 30.5 µM (inactive); with NCI/ADR-RES, 28.8 µM (inactive); in the assay on IGROV-1, 29.1 µM (inactive); with Hs-578T, 17.1 µM (inactive); in the assay on K562 it was 17.9 µM (inactive); in the assay with RPMI-8226, 22.5 µM (inactive).
Turning to `Cc1cc(S(=O)(=O)[N-]/C(=N/S(=O)(=O)c2cc(Cl)sc2Cl)[n+]2ccc(N(C)C)cc2)c(S)cc1Cl`, the GI50 was 39.4 µM (inactive) in the assay on DU-145; 25.4 µM (inactive) with NCI-H522; 68.2 µM (inactive) with 786-0; > 100 µM (inactive) in the assay on KM12; 24.1 µM (inactive) in the assay on HCT-116; 47.9 µM (inactive) in the assay on SF-295. Also, the GI50 was 49.7 µM (inactive) in the assay on TK-10; 23.2 µM (inactive) in the assay with UO-31; 67 µM (inactive) with ACHN; 62.1 µM (inactive) with MDA-MB-435; > 100 µM (inactive) with NCI/ADR-RES; > 100 µM (inactive) with IGROV-1. Moreover, the GI50 in the assay on HT-29 is 30.6 µM (inactive); in the assay with Hs-578T, 40.4 µM (inactive); in the assay with K562 it was 43.9 µM (inactive); with LOX IMVI it was > 100 µM (inactive); in the assay on RPMI-8226, 47.5 µM (inactive).
As for `O=C(c1ccccc1)c1ccc2[nH]c(-c3c(Cl)c(Cl)c(Cl)c(Cl)c3C(=O)N/N=C/c3ccc(Cl)cc3)nc2c1`, the GI50 was 56.8 µM (inactive) in the assay with DU-145; 39.2 µM (inactive) in the assay on SN12C; 19.5 µM (inactive) with NCI-H522; 31.2 µM (inactive) in the assay with 786-0; 48.4 µM (inactive) in the assay with KM12; 44.6 µM (inactive) with HCT-116. Besides, the GI50 with SF-295 was 29 µM (inactive); with TK-10, 40.1 µM (inactive); with UO-31, 42.6 µM (inactive); in the assay with A549, 33 µM (inactive); in the assay on ACHN, 19.9 µM (inactive); in the assay on MDA-MB-435, 32.8 µM (inactive). Further, the GI50 is 47.8 µM (inactive) in the assay with NCI/ADR-RES; 33 µM (inactive) in the assay with IGROV-1; 35.2 µM (inactive) with HT-29; 57.9 µM (inactive) with Hs-578T; 23.7 µM (inactive) in the assay with K562; 34 µM (inactive) in the assay on LOX IMVI. Also, in the assay with RPMI-8226, the GI50 is 19.3 µM (inactive).
With `Cc1[nH]c2ncn3ncnc3c2c1Cc1ccccc1`, the GI50 with DU-145, in the assay on SN12C, in the assay with NCI-H522, in the assay on 786-0, in the assay on KM12 and in the assay on UACC-62 was > 100 µM (inactive) throughout. For the same molecule, the GI50 with HCT-116, in the assay on SF-295, in the assay on TK-10, with UO-31, in the assay on A549 and in the assay on ACHN was > 100 µM (inactive) each time. Also, the GI50 with MDA-MB-435 was > 100 µM (inactive); in the assay on NCI/ADR-RES it was > 100 µM (inactive); in the assay on IGROV-1 it was 92.7 µM (inactive); in the assay on HT-29, > 100 µM (inactive); with Hs-578T, > 100 µM (inactive).
In the case of `Cc1ccc2c(=O)[nH]sc2c1`, the GI50 in the assay with DU-145 is 88.1 µM (inactive); in the assay with SN12C it was 7.83 µM (inactive); in the assay on NCI-H522, 2.38 µM (inactive); in the assay on 786-0, 3.72 µM (inactive); with UACC-62 it was 17.1 µM (inactive); with HCT-116 it was 31.9 µM (inactive). Besides, the GI50 in the assay with SF-295 was 54.5 µM (inactive); in the assay on TK-10 it was 18.4 µM (inactive); with A549, 19 µM (inactive); in the assay with ACHN, 9.29 µM (inactive); in the assay with MDA-MB-435 it was 14.5 µM (inactive); with NCI/ADR-RES it was 21.6 µM (inactive). Besides, the GI50 in the assay on IGROV-1 is 19.7 µM (inactive); in the assay on HT-29, 16.7 µM (inactive); with Hs-578T it was 21.5 µM (inactive); in the assay with K562, 5.58 µM (inactive); with LOX IMVI, 16.1 µM (inactive); with RPMI-8226, 5.31 µM (inactive).
Regarding `Clc1ccc2c(NCCCC/N=C/c3ccccc3)ccnc2c1`, the GI50 in the assay with DU-145 was 20.7 µM (inactive); with SN12C it was 5.69 µM (inactive); in the assay on NCI-H522, 11.8 µM (inactive); in the assay on 786-0 it was 9.16 µM (inactive); with KM12, 7.98 µM (inactive); in the assay on HCT-116, 6.24 µM (inactive). Further, the GI50 is 10.4 µM (inactive) in the assay with SF-295; 18.6 µM (inactive) in the assay with TK-10; 14.8 µM (inactive) in the assay with UO-31; 13.4 µM (inactive) in the assay with A549; 12.5 µM (inactive) in the assay on ACHN; 12.6 µM (inactive) in the assay on MDA-MB-435. Besides, the GI50 is 20.7 µM (inactive) in the assay with NCI/ADR-RES; 11.8 µM (inactive) with IGROV-1; 5.18 µM (inactive) with HT-29; 11.6 µM (inactive) with Hs-578T; 5.01 µM (inactive) in the assay with K562; 13.5 µM (inactive) with LOX IMVI. The GI50 with RPMI-8226 is 18.1 µM (inactive).
Turning to `CC(C)C(=O)/C=C/S/C=C/C(=O)C(C)C`, the GI50 in the assay with DU-145 is 13.4 µM (inactive); in the assay with SN12C it was 14.2 µM (inactive); with NCI-H522, 1.19 µM (inactive); in the assay on 786-0, 2.53 µM (inactive); in the assay with KM12 it was 30.3 µM (inactive); in the assay with UACC-62, 9.46 µM (inactive). The GI50 is 1.69 µM (inactive) with HCT-116; 34.9 µM (inactive) in the assay on SF-295; > 100 µM (inactive) in the assay on TK-10; 4.93 µM (inactive) with UO-31; 32.3 µM (inactive) in the assay on A549; 2.24 µM (inactive) in the assay with ACHN. In addition, the GI50 with MDA-MB-435 is 10.4 µM (inactive); with NCI/ADR-RES, 2.83 µM (inactive); in the assay on IGROV-1 it was 19.5 µM (inactive); with HT-29, 4.09 µM (inactive); in the assay with Hs-578T, 21.6 µM (inactive); in the assay with LOX IMVI, 3.31 µM (inactive).
Take `CC(O)CCCCC(O)CCC[C@H](O)[C@H]1CCC([C@H]2CCC([C@@H](O)CCCCCCCCCCCCC3=C[C@H](C)OC3=O)O2)O1` (stereo partly drawn): the GI50 was 12 µM (inactive) in the assay on DU-145; 12.2 µM (inactive) in the assay with SN12C; 7.64 µM (inactive) in the assay on NCI-H522; 14.4 µM (inactive) in the assay with 786-0; 5.48 µM (inactive) in the assay with KM12; 10.9 µM (inactive) in the assay with UACC-62. For the same molecule, the GI50 in the assay on HCT-116 was 0.0667 µM (active); in the assay on SF-295, 9.29 µM (inactive); with TK-10, 9.48 µM (inactive); in the assay with UO-31 it was 9.44 µM (inactive); with A549 it was 7.94 µM (inactive); with ACHN, 10.2 µM (inactive). For the same molecule, the GI50 in the assay on MDA-MB-435 is 9.18 µM (inactive); with NCI/ADR-RES, 2.44 µM (inactive); in the assay on IGROV-1, 10.5 µM (inactive); with HT-29, 10.7 µM (inactive); with Hs-578T, 12.3 µM (inactive).

For the origin of these results see ChEMBL document CHEMBL1201862, “PubChem BioAssay data set” (2004).
